Several values for one entry are separate records, joined by “and”; a condition that tells them apart may be missing. Equal values may be shown once. Entries after “also recorded” stand apart in the source; their conditions may differ.
Key:
[1] = tested on: antigen-specific CTL from PBMC; experiment: 51Cr cytotoxicity assay of CTL stimulated from DAB389IL-2-depleted PBMC; assay type: cell-based, human
[2] = tested on: CD4^+CD25^int memory T-cell pool; settings: after DAB389IL-2 administration; fluM1, CMV, tetanus toxoid
CD4^+/CD25^high Treg = experiment: Depletion of regulatory T cells in vivo (FACS of patient PBMC); design: species or system human; settings: for Treg Depletion (%): single i.v. dose 18 μg/kg
Protocol: Four-color FACS analyses were performed using a Becton Dickinson FACSCalibur™. Fluorochrome-conjugated antibodies including anti-CD4 FITC, anti-CD45RO, anti-CD45RA (Caltag, Burlingame, Calif.); anti-CD25 PE (Becton Dickinson, California, CA) as well as isotypic control antibodies (Caltag, Burlingame, Calif.) were used for T-cell staining. Expression of GITR was analyzed by staining T cells with anti-GITR antibody (R&D Systems, Minneapolis, Minn.) followed by secondary goat anti-mouse antibody conjugated to APC. For determination of intracellular CTLA-4 expression, T cells were permeabilized with 0.5% saponin, fixed with 4% paraformaldehyde and then stained with biotinylated anti-CD152 (Becton Dickinson, California, CA) followed by APC-strepavidin (Becton Dickinson, California, CA). A total of 1×10^6 cells were suspended in staining buffer (PBS with 1% FCS, 2 mM EDTA, and 0.1% sodium azide) and incubated for 20 minutes at 4° C. with the antibody. Data were analyzed and presented using CELLQuest™ software. Sorting of CD4^+CD25^neg, CD4^+CD25^int and CD4^+CD25^high T cells was performed with a BD FACSAria™ cell sorter after antibody labeling. For detection of cytokine secretion, isolated CD4^+ T cells were activated for 16 hours in the presence of autologous mRNA-transfected DC. Cytokine secretion was measured using c Th1/Th2 cytokine cytometric bead arrays according to the manufacturer's protocol (BD Biosciences Pharmingen, San Diego, Calif.).
Using these methods, the degree of regulatory T cell depletion efficacy in the four subjects treated on the clinical protocol was determined.
Four-color FACS analyses were performed using the following antibodies: anti-CD4 FITC, anti-CD45RO, anti-CD45RA (Caltag), anti-CD25 PE (Becton Dickinson), anti-GITR (R&D Systems), and isotypic controls (Caltag). Sorting of CD4^+/CD25^neg, CD4^+/CD25^int and CD4^+/CD25^high T cells was performed using a Becton Dickinson FACSAria™ cell sorter after antibody labeling. For intracellular detection of FoxP3, cells were permeabilized with 30 μg/ml digitonin for 45 minutes at 4° C. Subsequently, cells were stained with anti-FoxP3 antibody (Abcam), and R-PE anti-goat IgG in the presence of 10 μg/ml digitonin for 30 minutes at 4° C. Following staining, cells were fixed and analyzed by FACS. For intracellular CTLA-4 detection, T cells were permeabilized, fixed, and stained with biotinylated anti-CD152 (Becton Dickinson) followed by APC-streptavidin (Becton Dickinson). A total of 1×10^6 cells was suspended in staining buffer (PBS with 1% FCS, 2 mM EDTA, and 0.1% sodium azide) and incubated for 20 minutes at 4° C. with the antibody.

[3] = tested on: renal tumor-specific CD4^+ T cells; experiment: Cytokine profile of vaccine-induced CD4+ T cells (ELISPOT, Th1/Th2 bead array); assay type: in vivo, human
PBMC = experiment: MTT viability of PBMC (bystander toxicity); settings: DAB389IL-2 5 nM
[4] = Clinical toxicity in cancer patients; assay type: in vivo, human
Protocol: All subjects received a total of three intradermal injections of total tumor RNA-transfected DC. The injections were given intradermally at biweekly intervals and consisted of 1×10^7 cells suspended in 200 μL 0.9% sodium chloride (Abbott Laboratories, Abbott Park, Ill.) at each vaccination cycle. Following treatment, subjects were evaluated for toxicity, immunological and clinical response to therapy. Follow-up visits occurred biweekly for three visits, monthly for one visit, then every 3 months or until the subject was removed from the study.
Having shown that regulatory T cell elimination is capable of enhancing T-cell responses in vitro, a clinical study was initiated to analyze the efficacy of this strategy to a) eliminate regulatory T cells and b) to enhance a vaccine-induced T-cell response in end-stage cancer patients. Seven patients with metastatic renal cell (RCC), and one subject with disseminated ovarian carcinoma (OVA) were treated in an institutional review board (IRB) and Food and Drug Administration (FDA)-approved pilot study. […] PBMCs were also obtained from a subject who received DAB389IL-2 only under separate informed consent.
Treatment of patients was performed following written informed consent as part of an Institutional Review Board- and Federal Drug Administration-approved protocol. Patients with histologically-confirmed metastatic RCC were eligible for this study. One patient with disseminated ovarian carcinoma was included and treated on a compassionate basis. All patients were required to have adequate hepatic, renal, and neurological function, a life expectancy of >6 months, and a Karnofsky performance status of >70%. Patients must have had recovered from all toxicities related to any prior therapy and have not received any chemotherapy, radiation therapy, or immunotherapy for at least 6 weeks prior to study entry. Excluded from the study were patients with CNS metastases, with a history of autoimmune disease, with serious intercurrent chronic or acute illnesses. Patients on immunosuppressive agents were also excluded. […] All subjects received 3 intradermal injections of tumor RNA-transfected DC. The injections were given intradermally at biweekly intervals and consisted of 1×10^7 cells suspended in 200 μL 0.9% sodium chloride at each vaccination. Following treatment, subjects were evaluated for clinical toxicity, immunological and clinical responses. Due to regulatory restrictions and, in some subjects, limited access to tumor tissue, no tumor biopsies were performed.
Having shown that Treg elimination is capable of enhancing T-cell responses in vitro, a clinical study was initiated to test the Treg depletion concept in a human vaccination setting. Eleven patients including 10 with metastatic RCC and one with disseminated ovarian carcinoma (OVA) were treated in an Institutional Review Board (IRB) and Food and Drug Administration (FDA)-approved study.

Question: For denileukin diftitox [DAB389IL-2], which “improvement of antigen-specific killing” value ([1]; MART-1 peptide-pulsed DC as stimulators, DAB389IL-2 5 nM) is on record?
Answer: only modest, statistically insignificant improvement of antigen-specific killing

Question: And the “lytic activity of CTL stimulated from Treg-depleted vs non-depleted PBMC” value ([1]; mRNA-transfected DC stimulators (hTERT, MART-1))?
Answer: higher lytic activity against their cognate targets; also recorded: significantly higher lytic activity

Question: What about the “improvement of CTL responses” value ([1]; recall antigen fluM1, or peptide-loaded DC as stimulators) of the same substance?
Answer: ineffective in improving CTL responses

Question: And the “antigen-specific proliferative reactivities against recall antigens” value [2]?
Answer: unchanged reactivities

Question: And the “Treg Depletion (%)” value (CD4^+/CD25^high Treg; Example 1, per patient, four days after treatment)?
Answer: 74% and 88% and 37% and 77%

Question: And the “Treg Depletion (%)” value (CD4^+/CD25^high Treg; Example 1, per patient, four days after treatment, listed as DAB 389 IL-2)?
Answer: 74% and 88% and 37% and 77%

Question: And the “Treg Depletion (%)” value (CD4^+/CD25^high Treg; Example 2, per patient, 4 days after infusion)?
Answer: 74% and 72% and 68% and 76% and 57% and 26% and 35%

Question: What about the “effect on CD25^neg/int subsets” value (CD4^+/CD25^high Treg; total CD25^pos cells after DAB389IL-2) of the same substance?
Answer: CD25^neg/int subsets were unaffected

Question: And the “Treg restored in the peripheral T-cell pool” value (CD4^+/CD25^high Treg; within two months)?
Answer: approximately 75%

Question: What about the “Th1/Th2 cytokine secretion by vaccine-induced T cells (bead array)” value ([3]; 18 hours stimulation with RCC RNA-transfected DC) of the same substance?
Answer: secretion of Th-1 type cytokines (IL-2, Interferon-γ, or TNF-α), but not Th-2 type cytokines

Question: What about the “Interferon-γ / IL-4 secreting renal tumor-specific CD4 T cells (ELISPOT)” value ([3]; one subject, DAB389IL-2 followed by vaccination) of the same substance?
Answer: stimulation of Interferon-γ, but not IL-4-secreting renal tumor-specific CD4 T cells

Question: What about the “PBMC viability over time” value (PBMC) of the same substance?
Answer: no significant differences in PBMC viability

Question: And the “reduction in absolute neutrophil counts (ANC)” value ([4]; average, 5 of 6 evaluable subjects)?
Answer: 10%

Question: What about the “decrease in absolute neutrophil counts (ANC)” value ([4]; one subject) of the same substance?
Answer: 20%

Question: And the ALT elevations ([4]; single i.v. dose 18 μg/kg)?
Answer: transient, grade II ALT elevations in one subject; also recorded: transient grade II serum alanine aminotransferase (ALT) elevations (n=1)

Question: And the constitutional symptoms ([4]; single i.v. dose 18 μg/kg)?
Answer: Grade I constitutional symptoms in two subjects; also recorded: grade I constitutional symptoms such as low-grade fever and malaise (n=4)

Question: What about the serum rheumatoid factor ([4]; single i.v. dose 18 μg/kg) of the same substance?
Answer: grade I elevation of serum rheumatoid factor (n=1)

From patent US20060002932A1, “Methods and compositions for enhancement of immunity by in vivo depletion of immunosuppressive cell activity” (priority 2004, published 2006)
